The text below walks through data of ChEMBL document CHEMBL1201862, “PubChem BioAssay data set” (2004).

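1) Cells in 96-well plates. 2) Compound, 48 h, 5 concentrations. 3) Linear interpolation between surrounding doses. 4) Unreached endpoint = highest concentration. Abbreviation: GI50, concentration required for 50% inhibition of growth.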 Activity calls are given as the source filed them. No stated cut-off is given here; in the data, active = GI50 up to about 1.1 µM and inactive = higher.

Among the test systems are 786-0; A549; BT-549; CAKI-1; EKVX; HCC 2998; HOP-62; Hs-578T; KM12; MDA-MB-231; MDA-MB-435; Malme-3M; NCI-H522; PC-3; SK-MEL-5; SNB-19; TK-10; CCRF-CEM; MOLT-4; MDA-N.
Holding throughout (test): NCI anticancer screen, dose series, 48 h

Consider `Oc1ccc2ccccc2c1OCc1nnc(CCCCCCCCc2nnc(COc3c(O)ccc4ccccc34)n2Nc2ccccc2)n1Nc1ccccc1`, for which the GI50 was 21.5 µM (inactive) in the experiment on 786-0; 10.5 µM (inactive) in the experiment with A549; 6.19 µM (inactive) with BT-549; 12.3 µM (inactive) with CAKI-1; 15.4 µM (inactive) in the experiment on EKVX; 8.05 µM (inactive) with HCC 2998. Besides, the GI50 with HOP-62 was 1.06 µM (active); in the experiment with Hs-578T it was 18.2 µM (inactive); with KM12, 12.5 µM (inactive); in the experiment on MDA-MB-231, 15.3 µM (inactive); in the experiment on MDA-MB-435, 2.43 µM (inactive); with Malme-3M it was 11.1 µM (inactive). Further, the GI50 is 11.1 µM (inactive) in the experiment on NCI-H522; 2.68 µM (inactive) in the experiment with PC-3; 0.536 µM (active) with SK-MEL-5; 20.7 µM (inactive) in the experiment with SNB-19; 22.6 µM (inactive) with TK-10.
Turning to `CC(C)(C)CNC(=O)NCn1cc(-c2ccccc2)nn1`, the GI50 in the experiment on 786-0, in the experiment with A549, in the experiment with BT-549, in the experiment on CAKI-1, in the experiment with CCRF-CEM and in the experiment on EKVX was > 100 µM (inactive) throughout. Moreover, the GI50 in the experiment with HCC 2998, in the experiment with HOP-62, in the experiment on KM12, in the experiment with MDA-MB-231, with MOLT-4 and in the experiment on Malme-3M was > 100 µM (inactive) each time. Moreover, the GI50 in the experiment on NCI-H522, in the experiment with PC-3, in the experiment with SK-MEL-5, in the experiment on SNB-19 and in the experiment on TK-10 was > 100 µM (inactive) each time.
For the compound `CC(=O)NC(=O)/N=C1\NCCC(=O)N1CCc1c[nH]c2ccccc12`, the GI50 in the experiment with 786-0, in the experiment with A549, in the experiment on CAKI-1, in the experiment on CCRF-CEM, with EKVX and with HCC 2998 was > 100 µM (inactive) throughout. The GI50 with HOP-62, in the experiment with Hs-578T, in the experiment on KM12, in the experiment on MDA-MB-231, in the experiment with MDA-MB-435 and in the experiment on MDA-N was > 100 µM (inactive) each time. In addition, the GI50 with MOLT-4, with Malme-3M, with NCI-H522, in the experiment with PC-3, in the experiment with SK-MEL-5 and in the experiment on SNB-19 was > 100 µM (inactive) each time. In addition, the GI50 in the experiment with TK-10 was > 100 µM (inactive).
Regarding `CN(C)CCCNC(=O)c1c(-c2cccnc2)cnc2ccccc12`, the GI50 in the experiment with 786-0, in the experiment with A549, in the experiment with BT-549, with CAKI-1, with CCRF-CEM and in the experiment on EKVX was > 100 µM (inactive) each time. Moreover, the GI50 with HCC 2998 is > 100 µM (inactive); in the experiment on HOP-62, > 100 µM (inactive); in the experiment on KM12 it was > 10 µM (inactive); with MDA-N it was > 100 µM (inactive); with MOLT-4, > 100 µM (inactive); in the experiment with Malme-3M it was > 100 µM (inactive). The GI50 in the experiment on NCI-H522 is > 100 µM (inactive); with PC-3, > 100 µM (inactive); with SK-MEL-5, 61.9 µM (inactive); in the experiment with SNB-19 it was > 100 µM (inactive); with TK-10, > 100 µM (inactive).
For `CC(C)(CO)NC(=O)c1cccc(C(=O)NC(C)(C)CO)c1Br`, the GI50 in the experiment with 786-0, with A549, in the experiment with BT-549, in the experiment with CAKI-1, in the experiment with EKVX and with HCC 2998 was > 100 µM (inactive) throughout. The GI50 with HOP-62, in the experiment with KM12, with MDA-MB-231, in the experiment with MDA-MB-435, with MOLT-4 and in the experiment on Malme-3M was > 100 µM (inactive) in each case. In addition, the GI50 in the experiment on PC-3, with SK-MEL-5, in the experiment with SNB-19 and in the experiment with TK-10 was > 100 µM (inactive) throughout.
With `O=C1[C@@H]2[C@@H](c3ccccc3)[C@]2(Cl)C(=O)[C@H]2[C@H](c3ccccc3)[C@@]12Cl`, the GI50 in the experiment with 786-0 was > 100 µM (inactive); in the experiment with A549, > 100 µM (inactive); in the experiment with BT-549, 45.8 µM (inactive); in the experiment with CAKI-1, > 100 µM (inactive); with CCRF-CEM, > 100 µM (inactive); in the experiment on EKVX, > 100 µM (inactive). Moreover, the GI50 with HCC 2998, with HOP-62, in the experiment on Hs-578T, with KM12, in the experiment on MDA-MB-231 and in the experiment on MDA-MB-435 was > 100 µM (inactive) throughout. Also, the GI50 in the experiment with MOLT-4, in the experiment on Malme-3M, in the experiment with NCI-H522, in the experiment on PC-3, in the experiment with SK-MEL-5 and with SNB-19 was > 100 µM (inactive) each time. Also, the GI50 in the experiment with TK-10 was > 100 µM (inactive).
For `C=C(C)CC1(O[Si](C)(C)C)C(=O)C(OCC)=C1OCC` (configuration not stated), the GI50 in the experiment on 786-0, with A549, in the experiment with BT-549, in the experiment with CAKI-1, with CCRF-CEM and in the experiment with EKVX was > 100 µM (inactive) each time. The GI50 with HOP-62, in the experiment on Hs-578T, with KM12, in the experiment on MDA-MB-231, in the experiment with MDA-MB-435 and in the experiment on MOLT-4 was > 100 µM (inactive) throughout. The GI50 with Malme-3M, in the experiment with NCI-H522, with PC-3, with SK-MEL-5, in the experiment on SNB-19 and in the experiment with TK-10 was > 100 µM (inactive) each time.
`C1=CC2C(C3CN(c4ccccc4)N=C13)C1C3C4C=CC21C=CC43` (configuration not stated): the GI50 with 786-0 is > 100 µM (inactive); with A549 it was > 100 µM (inactive); in the experiment on BT-549, > 100 µM (inactive); in the experiment on CAKI-1, > 100 µM (inactive); in the experiment on CCRF-CEM, > 69.3 µM (inactive); with EKVX it was > 100 µM (inactive). For the same compound, the GI50 in the experiment with HCC 2998, in the experiment with HOP-62, with Hs-578T, in the experiment on KM12, with MDA-MB-231 and in the experiment on MDA-MB-435 was > 100 µM (inactive) in each case. Besides, the GI50 in the experiment on MOLT-4 is > 100 µM (inactive); in the experiment with Malme-3M, 57.5 µM (inactive); with NCI-H522 it was 97.5 µM (inactive); in the experiment with PC-3 it was > 100 µM (inactive); in the experiment with SK-MEL-5, > 100 µM (inactive); in the experiment on SNB-19, > 100 µM (inactive). The GI50 in the experiment on TK-10 is > 100 µM (inactive).
